From US9593307B2, “Defined media for expansion and maintenance of pluripotent stem cells” (Janssen Biotech, Inc., priority 2012, dated 2017)

Columns and labels:
[1] = system: human embryonic stem cell line H1; experiment: Real-time PCR of pluripotency and differentiation genes; type: cell-based; details: passage 3, Example 5
Description: After passage 5, only IH-1 and IH-3 were further compared to the cells cultured in mTeSR®1 media (Catalog No. 05850, Stem-Cell Technologies, Inc., Vancouver BC, Canada). […]
Approximately 1% of the cells were SOX17+ (FIG. 7D) and ˜85% of the cells were FOXA2+ (FIG. 7E). FIG. 8A to FIG. 8F show images of immunofluorescence staining of H1 cells cultured in IH-3 media for 18 passages. These images illustrate that a significant number of OCT4 and SOX2 positive cells were also FOXA2+. H1 cells cultured in IH3 media had acquired a phenotype where at least 70% of the cells were OCT4+ NANOG+ SOX2+ KI-67+ ZFP42− and FOXA2+. This represents a population of cells not yet described in the art.

[2] = system: human embryonic stem cell line H1; experiment: Culture in test media: growth and colony morphology (phase-contrast); type: cell-based; details: Example 5
Description: Cells of the human embryonic stem cell line H1 (at passage 35 to passage 40), cultured on MATRIGEL™ (Catalog No. 354230, 1:30 dilution; Corning Incorporated, Corning, N.Y.) coated dishes in mTeSR®1 media (Catalog No. 05850, Stem-Cell Technologies, Inc., Vancouver BC, Canada) and passaged using ethylenediaminetetraacetic acid (“EDTA”), were used as the starting population to test various media compositions. Cells were passaged as small colonies using 5-10 min EDTA (Catalog No. #170711E, Lonza Walkersville, Inc., Walkersville, Md.) treatment at room temperature. Cultures were routinely split in a ratio of 1:6 to 1:10 at each passage. Table I lists the initial media formulations tested for their ability to proliferate H1 cells while maintaining their undifferentiated morphology and pluripotency markers.
Media IH-1, IH-3, and IH-6 were selected for further evaluation.

[3] = day 4 following seeding, IH-3-2 media with the given BSA
[4] = passage 3, IH-3-2 media with the given BSA

| Substance | Markers associated with a differentiated cell (AFP, MIXL1, T (BRY); PCR) [1] | Cell morphology [2, 3] | Cell morphology [2, 4] | Confluency of cells ([2]; passage 3, compared to fatty acid free BSA) |
| --- | --- | --- | --- | --- |
| Sigma BSA: 2% Sigma BSA (catalog No. A2153; Lot: 061M1804V, Sigma Aldrich) used to supplement IH-3-2 media | significant upregulation | morphological evidence of differentiated cells | morphological evidence of differentiated cells | significant drop in confluency |
| fatty acid-free BSA: fatty-acid free BSA (Catalog No. 7500804; Lot: 11G54001, LAMPIRE Biological Laboratories) in IH-3-2 media |  | no gross differentiated cell morphology evident | no gross differentiated cell morphology evident |  |
